Literature values as cited in US20150147378A1, “COPOLYMER-XEROGEL NANOCOMPOSITES USEFUL FOR DRUG DELIVERY” (RUTGERS, THE STATE UNIVERSITY OF NEW JERSY, priority 2008, published 2015).

## CO[C@H]1/C=C/O[C@@]2(C)Oc3c(C)c(O)c4c(O)c(c(/C=N/N5CCN(C)CC5)c(O)c4c3C2=O)NC(=O)/C(C)=C\C=C\[C@H](C)[C@H](O)[C@@H](C)[C@@H](O)[C@@H](C)[C@H](OC(C)=O)[C@@H]1C [rifampicin]
  octanol/water partition coefficient, log P: 2.72
